Measured values: patent publication US8642608B2, “Quinazoline derivatives as VEGF inhibitors” (AstraZeneca AB, priority 1999, dated 2014)

Tests used:
[1] = system: femoral epiphyseal growth plates of the distal femur and proximal tibia; assay: 14 day toxicity test in rat (d); assay type: in vivo, Alderley Park rats (Wistar derived); details: 100 mg/kg/day, oral gavage, 14 days, female rats; p<0.001 (one-tailed Students' t-test)
Excerpt: The toxicological profile of compounds of the present invention may be assessed, for example using a rat 14 day study as described hereinafter.
(d) 14 Day Toxicity Test in Rat
This test measures the activity of compounds in increasing the zone of hypertrophy in the femoral epiphyseal growth plates of the distal femur and proximal tibia, and allows assessment of histopathological changes in other tissues.
A. Preclinical Safety Evaluation of rhuMAbVEGF, an antiangiogenic humanised monoclonal antibody, Tox. Path., 27: 78-86, 1999).
Compounds were initially formulated by suspension in a 1% (v/v) solution of polyoxyethylene (20) sorbitan mono-oleate in deionised water, by ball-milling at 4° C. overnight (at least 15 hours). Compounds were re-suspended by agitation immediately prior to dosing. […] The femoral epiphyseal growth plate areas of the distal femur and proximal tibia were measured in sections of femur and tibia using morphometric image analysis. The increase in the zone of hypertrophy was determined by comparison of the mean epiphyseal growth plate area of the control group versus the treatment group, and statistical significance determined using a one-tailed Students' t-test. […]

[2] = system: VEGF-stimulated human umbilical vein endothelial cells (HUVEC); assay: In vitro HUVEC proliferation assay (b), VEGF-stimulated; assay type: cell-based; details: 96 h, test (b), VEGF 3 ng/ml, 4 days, tritiated-thymidine incorporation
Protocol: (§1) (b) In Vitro HUVEC Proliferation Assay
(§2) HUVEC cells were isolated in MCDB 131 (Gibco BRL)+7.5% v/v foetal calf serum (FCS) and were plated out (at passage 2 to 8), in MCDB 131+2% v/v FCS+3 μg/ml heparin+1 μg/ml hydrocortisone, at a concentration of 1000 cells/well in 96 well plates. After a minimum of 4 hours they were dosed with the appropriate growth factor (i.e. VEGF 3 ng/ml, EGF 3 ng/ml or b-FGF 0.3 ng/ml) and compound. The cultures were then incubated for 4 days at 37° C. with 7.5% carbon dioxide. On day 4 the cultures were pulsed with 1 μCi/well of tritiated-thymidine (Amersham product TRA 61) and incubated for 4 hours. The cells were harvested using a 96-well plate harvester (Tomtek) and then assayed for incorporation of tritium with a Beta plate counter. Incorporation of radioactivity into cells, expressed as cpm, was used to measure inhibition of growth factor-stimulated cell proliferation by compounds.

CaLu-6 tumour xenografts = assay: In vivo solid tumour disease model (c); design: species or system female athymic Swiss nu/nu mice; details: 50 mg/kg, orally once daily, CaLu-6 xenografts in mice; p<0.001 (Mann-Whitney Rank Sum Test)
Protocol: (c) In Vivo Solid Tumour Disease Model
This test measures the capacity of compounds to inhibit solid tumour growth.
CaLu-6 tumour xenografts were established in the flank of female athymic Swiss nu/nu mice, by subcutaneous injection of 1×10^6 CaLu-6 cells/mouse in 100 μl of a 50% (v/v) solution of Matrigel in serum free culture medium. […] Tumours were measured using vernier calipers and volumes were calculated as: (l×w)×√(1×w)×(π/6), where 1 is the longest diameter and w the diameter perpendicular to the longest diameter. Test compounds were administered orally once daily for a minimum of 21 days, and control animals received compound diluent. Tumours were measured twice weekly. The level of growth inhibition was calculated by comparison of the mean tumour volume of the control group versus the treatment group, and statistical significance determined using a Students' t-test and/or a Mann-Whitney Rank Sum Test. The inhibitory effect of compound treatment was considered significant when p<0.05.

[3] = system: EGF-stimulated human umbilical vein endothelial cells (HUVEC); assay: In vitro HUVEC proliferation assay (b), EGF-stimulated; assay type: cell-based; details: 96 h, test (b), EGF 3 ng/ml, 4 days, tritiated-thymidine incorporation
Protocol: as §1, §2

[4] = system: human umbilical vein endothelial cells (HUVEC), basal; assay: In vitro HUVEC proliferation assay (b), basal; assay type: cell-based; details: test (b)

COc1cc2c(Nc3ccc(Br)cc3F)ncnc2cc1OCC1CCN(C)CC1 [Example 2, 4-(4-bromo-2-fluoroanilino)-6-methoxy-7-(1-methylpiperidin-4-ylmethoxy)quinazoline]
increase in epiphyseal growth plate hypertrophy [1]: 75% | IC50 [2]: 60 nM | inhibition of tumour growth (CaLu-6 tumour xenografts): 78% | IC50 [3]: 170 nM | IC50 [4]: > 3000 nM
